Measured values from patent US6890887B2, “Synergistic herbicidal methods and compositions comprising dinitroaniline and imidazolinone compounds” (BASF Aktiengesellschaft, priority 1999, dated 2005).

Experiments:
Assay in all cases: Preemergence field plot evaluation of percent weed control
Format in all cases: in vivo
Conditions in all cases: visual, 60 days after application
Setaria verticilliata = system: Setaria verticilliata
Description: (§1) In the following examples, synergism is determined by the Colby^1 method, i.e. the expected (or predicted) response of the combination is calculated by taking the product of the observed response for each individual component of the combination when applied alone divided by 100 and subtracting this value from the sum of the observed response for each component when applied alone. Synergism of the combination is then determined by comparing the observed response of the combination to the expected (or predicted) response as calculated from the observed response of each individual component alone.
(§2) The foregoing is illustrated mathematically below, wherein a combination, C, is composed of component A plus component B and Obs. designates the observed response of the combination C. [formula]
(§3) Formulations containing imazamox^1, pendimethalin^2 and an imazamox/pendimethalin combination^3 are diluted with water and applied preemergence at volumes of 200 L/ha to 400 L/ha to field plots to provide the rates shown in Table I. 60 days after application, the plots are visually evaluted for percent weed control. The results are summarized in Table I. If more than one plot is included in an evaluation, the results are averaged.
(§4) ^1 BOLERO® 40 SL, an imazamox aqueous concentrate commercially available from American Cyanamid Company, Parsippany, N.J.
(§5) ^2 STOMP® 400 SC, a pendimethalin suspension concentrate commercially available from American Cyanamid Company, Parsippany, N.J.
(§6) ^3 An emulsifiable concentrate containing imazamox and pendimethalin.

Poa annua = system: Poa annua
Description: as §1, §2, §3, §4, §5, §6

Polygonum persicaria = system: Polygonum persicaria
Description: as §1, §2, §3, §4, §5, §6

Structure (SMILES)	% Weed Control Observed (Setaria verticilliata; pendimethalin 1,125 g/ha alone)	% Weed Control Observed (Poa annua; pendimethalin 1,125 g/ha alone)	% Weed Control Observed (Polygonum persicaria; pendimethalin 1,125 g/ha alone)	% Weed Control Observed (Setaria verticilliata; imazamox 75 g/ha alone)	% Weed Control Observed (Poa annua; imazamox 75 g/ha alone)	% Weed Control Observed (Polygonum persicaria; imazamox 75 g/ha alone)
CCC(CC)Nc1c([N+](=O)[O-])cc(C)c(C)c1[N+](=O)[O-] [Pendimethalin]	86%	63%	76%	–	–	–
COCc1cnc(C2=NC(C)(C(C)C)C(=O)N2)c(C(=O)O)c1 (stereo not drawn) [Imazamox, 2-(4-isopropyl-4-methyl-5-oxo-2-imidazolin-2-yl)-5-(methoxymethyl)nicotinic acid]	–	–	–	45%	68%	66%
